The record followed here is PubChem BioAssay (NCI).

Test systems include ACHN renal; CCRF-CEM leukemia; HCT-15 colon; HOP-62 NSCLC; LOX IMVI melanoma; MALME-3M melanoma; NCI-H23 lung; NCI-H522 lung; OVCAR-4 ovarian; RXF 393 renal; SF-295 CNS; SN12C renal; SW-620 colon; TK-10 renal; UACC-62 melanoma; DU-145 prostate; MDA-MB-231 breast; MDA-MB-435; PC-3 prostate.
Holding throughout (test): growth of human tumour cells (NCI), 48 h

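How tested: cells in 96-well plates exposed to compound for 48 hours at five concentrations. TGI is the concentration that stops growth completely.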 Where a SMILES comes first, the peptide text is derived from it. The star is where a group is joined. Cbz = O=C(OCc1ccccc1)* Where only a bound is given, the exact number is not on record here.

Take `COc1ccc(-c2nc3c(nc2-c2ccc(OC)cc2)N(C)S(=O)(=O)N=C3N)cc1`: the TGI in the experiment on ACHN renal is 80 µM; in the experiment on CCRF-CEM leukemia, greater than 100 µM; with HCT-15 colon, greater than 100 µM; with HOP-62 NSCLC it was greater than 100 µM; in the experiment with LOX IMVI melanoma, 29.9 µM; in the experiment with MALME-3M melanoma, 58.8 µM. The TGI was greater than 100 µM with NCI-H23 lung; 36 µM in the experiment with NCI-H522 lung; 79.2 µM in the experiment on OVCAR-4 ovarian; 44.1 µM with RXF 393 renal; 84.3 µM with SF-295 CNS; greater than 100 µM in the experiment with SN12C renal. The TGI in the experiment with SW-620 colon was greater than 100 µM; in the experiment with TK-10 renal, greater than 100 µM; with UACC-62 melanoma it was 94.3 µM.

`COc1cc2cc3c4c(cc(OC)c(OC)c4c2cc1OC)CCN3C(=O)CCC(=O)O`: the TGI with ACHN renal, in the experiment on CCRF-CEM leukemia, in the experiment with HOP-62 NSCLC, in the experiment with LOX IMVI melanoma, in the experiment on MALME-3M melanoma and in the experiment on NCI-H23 lung was greater than 100 µM throughout. In addition, the TGI with NCI-H522 lung, with OVCAR-4 ovarian, in the experiment on RXF 393 renal, with SF-295 CNS, in the experiment on SN12C renal and in the experiment on SW-620 colon was greater than 100 µM throughout. For the same compound, the TGI in the experiment with TK-10 renal and with UACC-62 melanoma was greater than 100 µM in each case.

On to `Cc1cc(C)c(C(=O)/C=C/c2ccccc2)c(C)c1`, for which the TGI is greater than 100 µM in the experiment on ACHN renal; greater than 100 µM in the experiment on CCRF-CEM leukemia; 51.3 µM in the experiment with HCT-15 colon; 76 µM in the experiment with HOP-62 NSCLC; 83.5 µM with MALME-3M melanoma; 97.9 µM with NCI-H23 lung. In addition, the TGI was 46.1 µM in the experiment on NCI-H522 lung; 81.6 µM with OVCAR-4 ovarian; 34.5 µM in the experiment on RXF 393 renal; 48.8 µM with SF-295 CNS; 34.7 µM in the experiment with SN12C renal; 48.1 µM in the experiment with SW-620 colon. The TGI with TK-10 renal and with UACC-62 melanoma was greater than 100 µM in each case.

On to `S=C(c1c[nH]c2ccccc12)N1CCCCC1`, for which the TGI with ACHN renal, in the experiment with CCRF-CEM leukemia, in the experiment on DU-145 prostate, with HCT-15 colon, in the experiment with HOP-62 NSCLC and in the experiment on LOX IMVI melanoma was greater than 100 µM in each case. For the same compound, the TGI in the experiment with MALME-3M melanoma, with MDA-MB-231 breast, in the experiment on MDA-MB-435, in the experiment with NCI-H23 lung, with PC-3 prostate and with RXF 393 renal was greater than 100 µM each time. Further, the TGI in the experiment on SF-295 CNS, with SN12C renal, with SW-620 colon, with TK-10 renal and with UACC-62 melanoma was greater than 100 µM throughout.

On to `Cc1nnc([C@@]2(C)CC[C@H]3[C@@H](CCC4=CC(=O)CC[C@@]43C)[C@@H]2CC#N)o1`, for which the TGI in the experiment on ACHN renal, with CCRF-CEM leukemia, with HCT-15 colon, in the experiment with HOP-62 NSCLC, with LOX IMVI melanoma and with MALME-3M melanoma was greater than 100 µM throughout. The TGI with MDA-MB-231 breast, with MDA-MB-435, in the experiment with NCI-H23 lung, in the experiment with NCI-H522 lung, with OVCAR-4 ovarian and in the experiment on PC-3 prostate was greater than 100 µM throughout. The TGI with RXF 393 renal, in the experiment on SF-295 CNS, with SN12C renal, in the experiment with SW-620 colon, in the experiment with TK-10 renal and in the experiment on UACC-62 melanoma was greater than 100 µM each time.

Regarding `CC(C)N(/C(F)=N\C(=O)Nc1ccccc1C(F)(F)F)C(C)C`, the TGI in the experiment on ACHN renal, with CCRF-CEM leukemia, with HCT-15 colon, in the experiment with HOP-62 NSCLC, with LOX IMVI melanoma and with MALME-3M melanoma was greater than 100 µM throughout. For the same compound, the TGI with MDA-MB-231 breast, with NCI-H23 lung, in the experiment with PC-3 prostate, in the experiment on SF-295 CNS, in the experiment on SN12C renal and with SW-620 colon was greater than 100 µM throughout. Further, the TGI in the experiment with TK-10 renal is greater than 100 µM.

On to `CC(=O)OC1[C@H](n2ccnc2)C[C@H]2[C@@H]3CC=C4CC(N5CCCC5)CC[C@]4(C)[C@H]3CC[C@]12C` (stereo partly specified), for which the TGI was greater than 100 µM in the experiment on ACHN renal; greater than 100 µM with CCRF-CEM leukemia; greater than 100 µM with DU-145 prostate; greater than 100 µM with HCT-15 colon; 38.1 µM with LOX IMVI melanoma; greater than 100 µM in the experiment with MDA-MB-231 breast. In addition, the TGI was greater than 100 µM in the experiment with MDA-MB-435; greater than 100 µM in the experiment on NCI-H23 lung; greater than 100 µM in the experiment on NCI-H522 lung; greater than 100 µM in the experiment with OVCAR-4 ovarian; greater than 100 µM with PC-3 prostate; 43.7 µM in the experiment on RXF 393 renal. Further, the TGI is 41 µM with SF-295 CNS; greater than 100 µM in the experiment with SN12C renal; greater than 100 µM in the experiment on SW-620 colon; greater than 100 µM in the experiment with TK-10 renal; 82.3 µM in the experiment with UACC-62 melanoma.

On to `CCOC(=O)CNC(=O)C(C)NC(=O)C(NC(=O)OCc1ccccc1)C(C)C` (stereo not drawn) (Cbz-Val-Ala-Gly-OEt; configuration not given here), for which the TGI in the experiment with ACHN renal, in the experiment with DU-145 prostate, in the experiment on HCT-15 colon, in the experiment on HOP-62 NSCLC, with MALME-3M melanoma and in the experiment with MDA-MB-435 was greater than 100 µM each time. Besides, the TGI in the experiment on NCI-H23 lung, with NCI-H522 lung, with PC-3 prostate, in the experiment on RXF 393 renal, in the experiment on SF-295 CNS and in the experiment on SN12C renal was greater than 100 µM each time. Besides, the TGI with SW-620 colon, with TK-10 renal and in the experiment on UACC-62 melanoma was greater than 100 µM each time.

As to `CCCCc1c2c(nc3c1CC/C(=C\c1ccc([N+](=O)[O-])cc1)C3=O)CCCC2`, the TGI was 3.28 µM in the experiment with ACHN renal; 6.68 µM in the experiment on CCRF-CEM leukemia; 1.16 µM in the experiment with HCT-15 colon; 3.29 µM in the experiment with HOP-62 NSCLC; 3.05 µM with LOX IMVI melanoma; 3.84 µM in the experiment on MALME-3M melanoma. The TGI with NCI-H522 lung was 2.84 µM; with RXF 393 renal, 2.63 µM; in the experiment on SF-295 CNS, 4.07 µM; in the experiment on SN12C renal, 3.34 µM; in the experiment with SW-620 colon, 3.53 µM; in the experiment on TK-10 renal, 3.17 µM. In the experiment with UACC-62 melanoma, the TGI was 3 µM.

With `O=C1CCCC2=C1CC1=C(CCCC1=O)N2c1cccc([N+](=O)[O-])c1`, the TGI with ACHN renal, in the experiment on CCRF-CEM leukemia, with HCT-15 colon, in the experiment with LOX IMVI melanoma, with NCI-H23 lung and in the experiment on OVCAR-4 ovarian was greater than 100 µM each time. Besides, the TGI with PC-3 prostate, with RXF 393 renal, with SN12C renal, in the experiment on SW-620 colon, with TK-10 renal and with UACC-62 melanoma was greater than 100 µM each time.

For the compound `COC1=CC(=O)NCCN1`, the TGI with ACHN renal was greater than 100 µM; in the experiment on CCRF-CEM leukemia, greater than 100 µM; in the experiment on HCT-15 colon, greater than 100 µM; in the experiment on HOP-62 NSCLC it was greater than 100 µM; in the experiment on LOX IMVI melanoma it was 45.2 µM; in the experiment with MALME-3M melanoma, greater than 100 µM. Also, the TGI in the experiment with NCI-H23 lung, in the experiment on NCI-H522 lung, in the experiment on OVCAR-4 ovarian, in the experiment on RXF 393 renal, in the experiment with SF-295 CNS and with SN12C renal was greater than 100 µM in each case. For the same compound, the TGI is 50.9 µM in the experiment on SW-620 colon, greater than 100 µM in the experiment on TK-10 renal and greater than 100 µM in the experiment on UACC-62 melanoma.

As to `COc1ccc2c(c1)CCN1C3=C(CCC3)C(=O)C[C@@H]21`, the TGI in the experiment with ACHN renal, in the experiment on CCRF-CEM leukemia, in the experiment with HCT-15 colon, in the experiment on HOP-62 NSCLC, with LOX IMVI melanoma and with MALME-3M melanoma was greater than 100 µM throughout. Also, the TGI in the experiment on NCI-H23 lung, with NCI-H522 lung, with OVCAR-4 ovarian, in the experiment with RXF 393 renal, with SF-295 CNS and with SN12C renal was greater than 100 µM each time. For the same compound, the TGI in the experiment on SW-620 colon, in the experiment on TK-10 renal and in the experiment with UACC-62 melanoma was greater than 100 µM throughout.

With `O=[N+]([O-])c1ccc(COc2cccc3cccnc23)cc1`, the TGI in the experiment on ACHN renal was 76.8 µM; in the experiment on CCRF-CEM leukemia, 23.7 µM; with HCT-15 colon, 25.7 µM; in the experiment with HOP-62 NSCLC, greater than 100 µM; with LOX IMVI melanoma it was 29.2 µM; in the experiment on MALME-3M melanoma, greater than 100 µM. Further, the TGI in the experiment with NCI-H23 lung is greater than 100 µM; with NCI-H522 lung it was 19.4 µM; in the experiment on OVCAR-4 ovarian it was 36.7 µM; in the experiment on RXF 393 renal, greater than 100 µM; in the experiment on SF-295 CNS, greater than 100 µM; in the experiment with SN12C renal, greater than 100 µM. In addition, the figures for the TGI with TK-10 renal and in the experiment on UACC-62 melanoma were 52.5 µM and 45.2 µM, respectively.

As to `CCN(CC)CC(=O)Nc1ccc2c(c1)C(=O)c1ccc(NC(=O)CN(CC)CC)cc1C2=O`, the TGI in the experiment with ACHN renal was 73.3 µM; in the experiment on CCRF-CEM leukemia, greater than 100 µM; in the experiment with HCT-15 colon, greater than 100 µM; in the experiment with HOP-62 NSCLC, 74.1 µM; with LOX IMVI melanoma, 34.5 µM; in the experiment with NCI-H23 lung it was greater than 100 µM. Further, the TGI in the experiment with NCI-H522 lung was 43.2 µM; in the experiment on OVCAR-4 ovarian, greater than 100 µM; in the experiment with RXF 393 renal, 29.7 µM; in the experiment with SF-295 CNS, greater than 100 µM; with SN12C renal, greater than 100 µM; in the experiment with SW-620 colon it was 69.8 µM. Further, the TGI in the experiment with TK-10 renal and with UACC-62 melanoma was greater than 100 µM throughout.
